Legend:
[1] = tested on: New Zealand rabbits with acute ocular hypertension; test: Intraocular pressure reduction experiment in New Zealand rabbits with acute ocular hypertension, experiment operation 1; type: in vivo; settings: for Intraocular pressure in the left eye: left eye (not modeled); for Intraocular pressure in the right eye: right eye (induced ocular hypertension)
Description: Experimental Example 3. Intraocular Pressure Reduction Experiment in New Zealand Rabbits with Acute Ocular Hypertension
Acute ocular hypertension of rabbits were induced by anterior chamber injection of a viscoelastic agent and the intraocular pressure reduction action of compound 60 and compound 63 at different concentrations were explored by eye-drop administration.
Male New Zealand rabbits, aged 97-127 days, weighted 2.5-3.4 kg, purchased from PizhouDongfang Breeding Co. Ltd.
Male New Zealand rabbits were randomly divided into 8 rabbits/per group according to body weight using a computer-generated randomization method. The animals in each group were injected with medical sodium hyaluronate gel in the anterior chamber of right eye in a single dose, 100 μL/eye, to induce ocular hypertension. In 5-15 minutes, 3 hours and 6 hours after right eye modeling, both eyes were dropped with a solvent, K-115 or test samples (compound 60 at different concentrations) at a volume of 50 μL/eye and intraocular pressure of the animals was measured before administration and in 1, 2, 4, 6, 8 and 10 hours after administration, respectively.

[2] = Toxicokinetics experiment: active compounds in plasma after 14 days of continuous administration; type: in vivo, New Zealand rabbits; settings: for Concentration of active compounds in plasma, Group 1 / Concentration of active compounds in plasma, Group 2: 8.0 mg/mL eye-drop, after 14 days of continuous administration
Experimental: Experimental Example 5. Toxicokinetics Experiment
The production rate of active drug ingredients and the exposure amount of active drug ingredients of the compound in plasma were detected after 14 days of continuous administration.
Male New Zealand rabbits, aged 3-6 months, weighted 2.0-5.0 kg, purchased from PizhouDongfang Breeding Co. Ltd.
After 14 days of continuous administration, blood samples from the group administrated with compound 63 (8.0 mg/mL) were collected at 0 hour (before administration) and in 0.5, 1, 2, 4, 8, and 24 hours after administration on Days 14-15. About 0.8 mL of whole blood was collected from the auricular artery or the saphenous vein of the hind limb (or other appropriate sites) of toxicokinetics experiment animals, and was placed in labeled collection tubes using ethylenediaminetetraacetic acid dipotassium (K2EDTA) as an anticoagulant. Plasma was obtained by centrifugation for 10 minutes at 3000 rpm and under the condition of 2° C. to 8° C. in 60 minutes after blood collection. All samples were quantitatively detected for the content of the administered compounds in plasma of the experimental animals by liquid chromatography-coupled mass spectrometry (LC-MS) and mass spectrometry (MS) technology.

[3] = 2.5 mg/mL both eyes, 1 hour after administration
[4] = 2.5 mg/mL both eyes, 2 hours after administration
[5] = 2.5 mg/mL both eyes, 4 hours after administration
[6] = 2.5 mg/mL both eyes, 6 hours after administration
[7] = 2.5 mg/mL both eyes, 8 hours after administration
[8] = 2.5 mg/mL both eyes, 10 hours after administration
[9] = 2.5 mg/mL both eyes, before administration
[10] = 5.0 mg/mL both eyes, 1 hour after administration
[11] = 5.0 mg/mL both eyes, 2 hours after administration
[12] = 5.0 mg/mL both eyes, 4 hours after administration
[13] = 5.0 mg/mL both eyes, 6 hours after administration
[14] = 5.0 mg/mL both eyes, 8 hours after administration
[15] = 5.0 mg/mL both eyes, 10 hours after administration
[16] = 5.0 mg/mL both eyes, before administration
[17] = 10 mg/mL both eyes, 1 hour after administration
[18] = 10 mg/mL both eyes, 2 hours after administration
[19] = 10 mg/mL both eyes, 4 hours after administration
[20] = 10 mg/mL both eyes, 6 hours after administration
[21] = 10 mg/mL both eyes, 8 hours after administration
[22] = 10 mg/mL both eyes, 10 hours after administration
[23] = 10 mg/mL both eyes, before administration
[24] = Time 0.00 hour (before administration)

Compound: Cc1cn(COC(=O)c2ccccc2)c(=O)c2cccc(S(=O)(=O)N3CCC(N)C3)c12 (stereo not drawn) [Compound 60]
- Intraocular pressure in the left eye [1, 3]: 5.00 mmHg
- Intraocular pressure in the left eye [1, 4]: 6.63 mmHg
- Intraocular pressure in the left eye [1, 5]: 8.29 mmHg
- Intraocular pressure in the left eye [1, 6]: 10.71 mmHg
- Intraocular pressure in the left eye [1, 7]: 12.17 mmHg
- Intraocular pressure in the left eye [1, 8]: 12.00 mmHg
- Intraocular pressure in the left eye [1, 9]: 12.00 mmHg
- Intraocular pressure in the right eye [1, 3]: 22.33 mmHg
- Intraocular pressure in the right eye [1, 4]: 19.75 mmHg
- Intraocular pressure in the right eye [1, 5]: 20.29 mmHg
- Intraocular pressure in the right eye [1, 6]: 17.00 mmHg
- Intraocular pressure in the right eye [1, 7]: 14.54 mmHg
- Intraocular pressure in the right eye [1, 8]: 12.54 mmHg
- Intraocular pressure in the right eye [1, 9]: 12.54 mmHg
- Intraocular pressure in the left eye [1, 10]: 4.96 mmHg
- Intraocular pressure in the left eye [1, 11]: 5.96 mmHg
- Intraocular pressure in the left eye [1, 12]: 8.29 mmHg
- Intraocular pressure in the left eye [1, 13]: 11.21 mmHg
- Intraocular pressure in the left eye [1, 14]: 11.46 mmHg
- Intraocular pressure in the left eye [1, 15]: 11.75 mmHg
- Intraocular pressure in the left eye [1, 16]: 11.75 mmHg
- Intraocular pressure in the right eye [1, 10]: 21.00 mmHg
- Intraocular pressure in the right eye [1, 11]: 16.29 mmHg
- Intraocular pressure in the right eye [1, 12]: 16.75 mmHg
- Intraocular pressure in the right eye [1, 13]: 14.88 mmHg
- Intraocular pressure in the right eye [1, 14]: 13.08 mmHg
- Intraocular pressure in the right eye [1, 15]: 11.25 mmHg
- Intraocular pressure in the right eye [1, 16]: 11.25 mmHg
- Intraocular pressure in the left eye [1, 17]: 4.63 mmHg
- Intraocular pressure in the left eye [1, 18]: 5.50 mmHg
- Intraocular pressure in the left eye [1, 19]: 9.25 mmHg
- Intraocular pressure in the left eye [1, 20]: 10.79 mmHg
- Intraocular pressure in the left eye [1, 21]: 11.75 mmHg
- Intraocular pressure in the left eye [1, 22]: 12.13 mmHg
- Intraocular pressure in the left eye [1, 23]: 12.13 mmHg
- Intraocular pressure in the right eye [1, 17]: 19.83 mmHg
- Intraocular pressure in the right eye [1, 18]: 17.46 mmHg
- Intraocular pressure in the right eye [1, 19]: 15.00 mmHg
- Intraocular pressure in the right eye [1, 20]: 12.33 mmHg
- Intraocular pressure in the right eye [1, 21]: 11.25 mmHg
- Intraocular pressure in the right eye [1, 22]: 12.08 mmHg
- Intraocular pressure in the right eye [1, 23]: 12.08 mmHg

Compound: Cc1ccc(C(=O)OCn2cc(C)c3c(S(=O)(=O)N4CC[C@H](N)C4)cccc3c2=O)c(C)c1 [Compound 63]
- Concentration of active compounds in plasma, Group 1 [2, 24]: BQL
- Concentration of active compounds in plasma, Group 2 [2, 24]: BQL
- Concentration of active compounds in plasma, Group 1 ([2]; Time 8.00 hour): BQL
- Concentration of active compounds in plasma, Group 2 ([2]; Time 8.00 hour): BQL
- Concentration of active compounds in plasma, Group 1 ([2]; Time 24.0 hour): BQL
- Concentration of active compounds in plasma, Group 2 ([2]; Time 24.0 hour): BQL
- Metabolite concentration in plasma ([2]; 8 hours after administration, high dose of 8 mg/mL): below the detection limit

Compound: C[C@H]1CNCCCN1S(=O)(=O)c1cccc2cncc(F)c12 [Compound K-115, reference compound]
- Intraocular pressure in the left eye [1, 17]: 5.88 mmHg
- Intraocular pressure in the left eye [1, 18]: 5.96 mmHg
- Intraocular pressure in the left eye [1, 19]: 8.29 mmHg
- Intraocular pressure in the left eye [1, 20]: 10.54 mmHg
- Intraocular pressure in the left eye [1, 21]: 11.88 mmHg
- Intraocular pressure in the left eye [1, 22]: 11.79 mmHg
- Intraocular pressure in the left eye [1, 23]: 11.79 mmHg
- Intraocular pressure in the right eye [1, 17]: 28.79 mmHg
- Intraocular pressure in the right eye [1, 18]: 22.67 mmHg
- Intraocular pressure in the right eye [1, 19]: 26.08 mmHg
- Intraocular pressure in the right eye [1, 20]: 23.25 mmHg
- Intraocular pressure in the right eye [1, 21]: 23.25 mmHg
- Intraocular pressure in the right eye [1, 22]: 11.92 mmHg
- Intraocular pressure in the right eye [1, 23]: 11.92 mmHg

From patent US12459918B2, “Isoquinolinone derivatives serving as rock protein kinase inhibitors and use thereof” (GUANGZHOU OCUSUN OPHTHALMIC BIOTECHNOLOGY CO., LTD., priority 2019, dated 2025)
